pEC50: −log10 of the molar value.

This assay concerns HIV-1 single-round infectious reporter virus. In words: Single-round infectious HIV-1 luciferase reporter virus infection of HeLa CD4 cells (antiviral EC50). The assay is classed as cell-based. To be noted: Human immunodeficiency virus 1, HeLa, 72 h, read-out: EC50 Group from Table 1. On the procedure:
• Virus production—Human embryonic Kidney cell line, 293T, was propagated in Dulbecco's Modified Eagle Medium (Invitrogen, Carlsbad, Calif.) containing 10% fetal Bovine serum (FBS, Sigma, St. Louis, Mo.). • Virus infection—Human epithelial cell line, HeLa, expressing the HIV-1 receptor CD4 was propagated in Dulbecco's Modified Eagle Medium (Invitrogen, Carlsbad, Calif.) containing 10% fetal Bovine serum (FBS, Sigma, St. Louis, Mo.) and supplemented with 0.2 mg/mL Geneticin (Invitrogen, Carlsbad, Calif.). Virus-Single-round infectious reporter virus was produced by co-transfecting human embryonic Kidney 293 cells with an HIV-1 envelope DNA expression vector and a proviral cDNA containing an envelope deletion mutation and the luciferase reporter gene inserted in place of HIV-1 nef sequences (Chen et al, Ref. 41). Transfections were performed using lipofectAMINE PLUS reagent as described by the manufacturer (Invitrogen, Carlsbad, Calif.).
• 1. HeLa CD4 cells were plated in 96 well plates at a cell density of 1×10^4 cells per well in 100 μl Dulbecco's Modified Eagle Medium containing 10% fetal Bovine serum and incubated overnight. • 2. Compound was added in a 2 μl dimethylsulfoxide solution, so that the final assay concentration would be ≦10 μM. • 3. 100 μl of single-round infectious reporter virus in Dulbecco's Modified Eagle Medium was then added to the plated cells and compound at an approximate multiplicity of infection (MOI) of 0.01, resulting in a final volume of 200 μl per well. • 4. Virally-infected cells were incubated at 37 degrees Celsius, in a CO2 incubator, and harvested 72 h after infection. • 5. Viral infection was monitored by measuring luciferase expression from viral DNA in the infected cells using a luciferase reporter gene assay kit, as described by the manufacturer (Roche Molecular Biochemicals, Indianapolis, Ind.). Infected cell supernatants were removed and 50 μl of lysis buffer was added per well. After 15 minutes, 50 μl of freshly-reconstituted luciferase assay reagent was added per well. Luciferase activity was then quantified by measuring luminescence using a Wallac microbeta scintillation counter. • 6. The percent inhibition for each compound was calculated by quantifying the level of luciferase expression in cells infected in the presence of each compound as a percentage of that observed for cells infected in the absence of compound and subtracting such a determined value from 100. • 7. An EC50 provides a method for comparing the antiviral potency of the compounds of this invention. The effective concentration for fifty percent inhibition (EC50) was calculated with the Microsoft Excel Xlfit curve fitting software. For each compound, curves were generated from percent inhibition calculated at 10 different concentrations by using a four paramenter logistic model (model 205). Table 1 is the key for the data in Table 2.
In general terms: Reporter assays use an easily measured gene product as a stand-in for the process of interest.
In general, pEC50 refers to the negative decadic logarithm of the EC50, by convention in mol/L. As to `COc1ncc(OC)c2c(C(=O)C(=O)N3CCC(=C(C#N)c4cncs4)CC3)c[nH]c12` [Example 124, 1-[4-(1-Cyano-1-thiazol-5-yl-methylene)-piperidin-1-yl]-2-(4,7-dimethoxy-6-azaindol-3-yl)-ethane-1,2-dione], the pEC50 is more than 6.00. Under `COc1cnc(-n2cnc(C)n2)c2[nH]cc(C(=O)C(=O)N3CCC(=C(c4ccccc4)c4nnc(C5CC5)o4)CC3)c12` [Example 82, 1-[4-(1-Phenyl-1-(5-cyclopropyl-1,3,4-oxadiazol-2-yl)-methylene)-piperidin-1-yl]-2-[4-methoxy-7-(3-methyl-1,2,4-triazol-1-yl)-6-azaindol-3-yl]-ethane-1,2-dione] stands more than 6.00; under `COc1cnc(-n2ccnn2)c2[nH]cc(C(=O)C(=O)N3CCC(=C(c4ccccc4)c4cccc(CO)c4)CC3)c12` [Example 78, 1-[4-(1-Phenyl-1-(3-hydroxymethylphenyl)-methylene)-piperidin-1-yl]-2-[4-methoxy-7-(1,2,3-triazol-1-yl)-6-azaindol-3-yl]-ethane-1,2-dione], more than 6.00; under `COc1ncc(OC)c2c(C(=O)C(=O)N3CCC(=C(C#N)c4csc5ccccc45)CC3)c[nH]c12` [Example 128, 1-[4-(1-Cyano-1-benzothien-3-yl-methylene)-piperidin-1-yl]-2-(4,7-dimethoxy-6-azaindol-3-yl)-ethane-1,2-dione], more than 6.00. As to `COc1ncc(OC)c2c(C(=O)C(=O)N3CCC(=C(c4ccccc4)S(C)(=O)=O)CC3)c[nH]c12` [Example 12], the pEC50 is 5.30 to 6.00. As for `COc1cnc(-n2cnc(C)n2)c2[nH]cc(C(=O)C(=O)N3CCC(=C(c4ccccc4)c4cnn(Cc5ccccc5)c4)CC3)c12` [Example 143, 1-[4-(1-Phenyl-1-(1-benzylpyrazol-4-yl)-methylene)-piperidin-1-yl]-2-(4-methoxy-7-(3-methyl-1,2,4-triazol-1-yl)-6-azaindol-3-yl)-ethane-1,2-dione], the pEC50 was more than 6.00. As to `COc1ncc(OC)c2c(C(=O)C(=O)N3CCC(=C(C)c4ccccc4)CC3)c[nH]c12` [Example 8], the pEC50 was more than 6.00. For `N#CC(=C1CCN(C(=O)C(=O)c2c[nH]c3c(-n4nccn4)ccnc23)CC1)c1ccccc1` [Example 105, {1-[2-Oxo-2-(7-[1,2,3]triazol-2-yl-1H-pyrrolo[3,2-b]pyridin-3-yl)-acetyl]-piperidin-4-ylidene}-phenyl-acetonitrile] the value was more than 6.00.

On to `COc1cnc(-c2cnccn2)c2[nH]cc(C(=O)C(=O)N3CCC(=C(c4ccccc4)c4nnc(C)o4)CC3)c12` [Example 72, 1-[4-(1-Phenyl-1-(5-methyl-1,3,4-oxadiazol-2-yl)-methylene)-piperidin-1-yl]-2-(4-methoxy-7-pyrazinyl-6-azaindol-3-yl)-ethane-1,2-dione], for which the pEC50 was more than 6.00.

As to `COc1ncc(OC)c2c(C(=O)C(=O)N3CCC(=C(c4ccccc4)c4cccc(F)c4)CC3)c[nH]c12` [Example 67], the pEC50 was more than 6.00. Under `COc1cnc(-c2cnccn2)c2[nH]cc(C(=O)C(=O)N3CCC(=C(c4ccccc4)c4nccs4)CC3)c12` [Example 90] stands more than 6.00; under `COc1cnc(-n2ccnn2)c2[nH]cc(C(=O)C(=O)N3CCC(=C(c4ccccc4)c4cnn(C)c4)CC3)c12` [Example 142, 1-[4-(1-Phenyl-1-(1-methylpyrazol-4-yl)-methylene)-piperidin-1-yl]-2-(4-methoxy-7-(1,2,3-triazol-1-yl)-6-azaindol-3-yl)-ethane-1,2-dione], more than 6.00; under `COc1ncc(OC)c2c(C(=O)C(=O)N3CCC(=C(Br)c4ccccc4)CC3)c[nH]c12` [Example 48a, 1-[4-(1-Bromo-1-phenyl-methylene)-piperidin-1-yl]-2-(4,7-dimethoxy-6-azaindol-3-yl)-ethane-1,2-dione], more than 6.00. On to `COc1cnc(-c2cnccn2)c2[nH]cc(C(=O)C(=O)N3CCC(=C(c4ccccc4)c4cnco4)CC3)c12` [Example 92], for which the pEC50 is more than 6.00.

These data come from patent publication US20080188481A1 (priority 2002, published 2008).
